The source of these data is patent US9090651B2, “Helix 12 directed pharmaceutical products” (ENDORECHERCHE, INC., priority 2004, dated 2015).

Several values for one entry are separate records, joined by “and”; a condition that tells them apart may be missing. Equal entries are not always repeated.

For assay [1], the system named is Shionogi mouse mammary carcinoma cells. Description: Androgenic/antiandrogenic activity on DHT-stimulated Shionogi cell growth. The format is cell-based. To be noted: Mus musculus, read-out: Shionogi Antiandrogenic activity IC50 (nM), inhibition of DHT-stimulated Shionogi cell number.
For a further assay, the system named is rat prostate. Description: Systemic antiandrogenic activity, orchidectomized immature male rats with DHT implant: prostate weight. In kind it is in vivo. The settings on record: for inhibition in vivo at 0.5 mg: Rattus norvegicus, sc, 168 h, read-out: IN VIVO Rat s.c. (+DHT) Prostate % inhibition, s.c., 0.5 mg/animal once daily for 7 days, +DHT. As for the experimental part: (§1) Immature male rats (Crl:CD(SD)Br) 22 to 24-day old were obtained from Charles-River, Inc. (St-Constant, Quebec, Canada) and housed up to 5 per cage in plastic bins in a temperature (23±1° C.)- and light (12 h light/day, lights on at 7 h15)-controlled environment. The rats were fed rodent chow and tap water ad libitum. The day following their arrival, the animals were orchidectomized (CX) under Isoflurane anesthesia via scrotal route and randomly assigned to groups of 5 animals.
(§2) Compounds were solubilized (when possible) in dimethylsulfoxide (DMSO, 10% final concentration) and administered as suspension in 0.4% methylcellulose. […] One group of animals received the antiandrogen Flutamide as reference. The animals were killed by cervical dislocation under isoflurane anesthesia on the 8th morning following castration. The ventral prostate and seminal vesicles were rapidly dissected and weighed.
(§3) W is the weight of the prostate or the seminal vesicle.

For the next assay, the target named is T1, Human Androgen Receptor (Homo sapiens, UniProt P10275).
T1 sequence (P10275 1-920): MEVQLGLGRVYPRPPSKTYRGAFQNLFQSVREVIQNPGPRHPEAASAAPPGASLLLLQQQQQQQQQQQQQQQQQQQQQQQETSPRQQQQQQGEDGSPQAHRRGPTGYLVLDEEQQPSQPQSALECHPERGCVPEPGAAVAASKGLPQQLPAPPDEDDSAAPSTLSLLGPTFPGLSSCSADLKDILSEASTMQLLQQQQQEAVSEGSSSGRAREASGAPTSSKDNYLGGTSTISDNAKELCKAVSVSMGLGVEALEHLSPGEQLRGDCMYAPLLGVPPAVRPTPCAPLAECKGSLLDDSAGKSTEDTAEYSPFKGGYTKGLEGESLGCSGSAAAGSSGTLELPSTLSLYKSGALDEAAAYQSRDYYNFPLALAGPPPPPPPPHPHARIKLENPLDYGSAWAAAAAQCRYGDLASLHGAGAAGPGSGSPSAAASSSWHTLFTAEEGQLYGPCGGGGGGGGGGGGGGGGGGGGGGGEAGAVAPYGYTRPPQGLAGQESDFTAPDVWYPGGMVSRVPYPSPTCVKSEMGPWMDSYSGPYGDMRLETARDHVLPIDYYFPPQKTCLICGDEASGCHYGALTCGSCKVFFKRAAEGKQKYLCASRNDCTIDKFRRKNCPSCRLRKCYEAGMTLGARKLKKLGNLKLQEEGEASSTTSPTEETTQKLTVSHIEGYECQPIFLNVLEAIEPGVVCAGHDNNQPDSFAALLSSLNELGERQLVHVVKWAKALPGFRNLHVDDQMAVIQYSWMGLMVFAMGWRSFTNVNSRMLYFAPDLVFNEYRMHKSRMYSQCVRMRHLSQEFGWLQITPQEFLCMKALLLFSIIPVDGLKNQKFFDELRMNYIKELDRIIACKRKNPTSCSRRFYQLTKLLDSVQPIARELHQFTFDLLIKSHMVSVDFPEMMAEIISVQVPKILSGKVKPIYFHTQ
The experiment in a line: Androgen receptor binding assay (hydroxylapatite, [3H]R1881, cytosol of transfected HEK-293 cells). The settings on record: % RBA=100×IC50 R1881/IC50 compound, transfected cells.

A further assay deals with rat seminal vesicle. Description: Systemic antiandrogenic activity, orchidectomized immature male rats with DHT implant: seminal vesicle weight. The format is in vivo. The settings on record: for inhibition in vivo at 0.5 mg: Rattus norvegicus, sc, 168 h, read-out: IN VIVO Rat s.c. (+DHT) SV % inhibition, s.c., 0.5 mg/animal once daily for 7 days, +DHT. As for the experimental part:
as §1, §2, §3

For `CCC(NC1CCCC1)c1cccc(OCC[C@]23CCC4C5CCC(=O)C=C5C[C@@H](C)C4C2CC[C@@H]3O)c1` (mixture of isomers) [EM-6681], the IC50 (usually the concentration needed to halve the response being measured) in assay [1] was 1.1 nM. Further, the inhibition in vivo at 0.5 mg worked out at 15% in the assay with rat prostate and 19% in the assay with rat seminal vesicle. The “Androgen Receptor Binding (%) Human RBA R1881 = 100” value at Human Androgen Receptor is listed as 56%.
On to `CCC(CC)N(C)C(CC)c1cccc(OCC[C@]23CCC4C5CCC(=O)C=C5C[C@@H](C)C4C2CC[C@]3(C)O)c1` (mixture of isomers) [EM-7127], for which the IC50 in assay [1] worked out at 0.91 nM. The inhibition in vivo at 0.5 mg in the assay with rat prostate stood at 20%; in the assay with rat seminal vesicle, 0%. Besides, at Human Androgen Receptor, the “Androgen Receptor Binding (%) Human RBA R1881 = 100” value stood at 128%.
For `CCC(NC1CCCC1)c1cccc(OCC[C@]23CCC4C5CCC(=O)C=C5C[C@@H](C)C4C2CC[C@]3(C)O)c1` (mixture of isomers) [EM-6733], the IC50 in assay [1] is 1.3 nM. Also, in the assay on rat prostate, the inhibition in vivo at 0.5 mg was determined as 34% and the “IN VIVO Rat (+DHT) Prostate % inhibition (per os)” value is given as 34%. Moreover, the “Androgen Receptor Binding (%) Human RBA R1881 = 100” value on Human Androgen Receptor worked out at 62%. Further, the “IN VIVO Rat (+DHT) SV % inhibition (per os)” value in the assay on rat seminal vesicle is reported as 6%.
Consider `CCCC(NC(CC)CC)c1cccc(OCC[C@]23CCC4C5CCC(=O)C=C5C[C@@H](C)C4C2CC[C@@H]3O)c1` (mixture of isomers) [EM-7128], for which the IC50 in assay [1] is 0.75 nM. Further, the inhibition in vivo at 0.5 mg in the assay with rat prostate worked out at 41%; in the assay with rat seminal vesicle, 2%. In addition, at Human Androgen Receptor, the “Androgen Receptor Binding (%) Human RBA R1881 = 100” value is on record as 120%.
In the case of `CCCC(NC(CC)CC)c1cccc(OCC[C@]23CCC4C5CCC(=O)C=C5C(C)(C)CC4C2CC[C@]3(C)O)c1` (mixture of isomers) [EM-7075], the IC50 in assay [1] was determined as 9.7 nM. The inhibition in vivo at 0.5 mg in the assay with rat prostate and in the assay on rat seminal vesicle was 0% in each case. The “Androgen Receptor Binding (%) Human RBA R1881 = 100” value on Human Androgen Receptor is reported as 57%.
For the compound `CCC(CC)NC(CC)c1cc(OCC[C@]23CCC4C(CCC5=CC(=O)CC[C@@]54C)C2CC[C@@H]3O)ccn1` (stereo partly shown) [EM-7136], the IC50 in assay [1] worked out at 0.2 nM. For the same compound, the values for the inhibition in vivo at 0.5 mg in the assay on rat prostate and in the assay with rat seminal vesicle were 27% and 35%, respectively. For the same compound, the “Androgen Receptor Binding (%) Human RBA R1881 = 100” value at Human Androgen Receptor is 92.7% and 93%.
`CCC(CC)N(C)C(CC)c1cccc(OCC[C@]23CCC4=C5CCC(=O)C=C5CCC4C2CC[C@@H]3O)c1` (mixture of isomers) [EM-6860]: the 50% inhibitory concentration (IC50) in assay [1] turned out to be 5.2 nM. Besides, the inhibition in vivo at 0.5 mg in the assay with rat prostate worked out at 12%; in the assay on rat seminal vesicle it was 0%. Also, the “Androgen Receptor Binding (%) Human RBA R1881 = 100” value at Human Androgen Receptor amounted to 33%.
Take `CC(NC1CCCCC1)c1cccc(OCC[C@]23CCC4C(CCC5C/C(=N\O)CC[C@@]54C)C2CC[C@@H]3O)c1` (stereo partly shown) [EM-6418]: the IC50 in assay [1] was determined as 5 nM. Further, in the assay on rat prostate, the inhibition in vivo at 0.5 mg worked out at 21% and the “IN VIVO Rat (+DHT) Prostate % inhibition (per os)” value is on record as 16%. The “Androgen Receptor Binding (%) Human RBA R1881 = 100” value at Human Androgen Receptor is given as 31%. Moreover, in the assay with rat seminal vesicle, the inhibition in vivo at 0.5 mg turned out to be 13% and the “IN VIVO Rat (+DHT) SV % inhibition (per os)” value came to 32%.
As to `CCCC(NC1CCCC1)c1cccc(OCC[C@]23CCC4C5CCC(=O)C=C5C[C@H](C)C4C2CC[C@]3(C)O)c1` (stereo partly shown) [EM-7218], the inhibition in vivo at 0.5 mg in the assay with rat prostate was determined as 35%; in the assay with rat seminal vesicle it was 0%. At Human Androgen Receptor, the “Androgen Receptor Binding (%) Human RBA R1881 = 100” value is given as 112%.
For the compound `CCCC(NC(CC)CC)c1cccc(OCC[C@]23CCC4C5CCC(=O)C=C5C[C@@H](C)C4C2CC[C@]3(C)O)c1` (mixture of isomers) [EM-7129], the IC50 in assay [1] was 0.96 nM. Also, the inhibition in vivo at 0.5 mg in the assay on rat prostate amounted to 37%; with rat seminal vesicle it was 10%. In addition, the “Androgen Receptor Binding (%) Human RBA R1881 = 100” value at Human Androgen Receptor is given as 197%.
In the same order, the values of `CCC(CC)NC(CN(C)C)c1cccc(OCC[C@]23CCC4C(CCC5CC(=O)CC[C@@]54C)C2CC[C@@H]3O)c1` (stereo partly shown) [EM-7118] are 7.2 nM, 31%, 0% and 176%.
Regarding `CCC(NC(C)C)c1cccc(OCC[C@]23CCC4C(CCC5=CC(=O)CC[C@@]54C)C2CC[C@]3(C)O)c1` (stereo partly shown) [EM-6918], the inhibition in vivo at 0.5 mg was 29% in the assay on rat prostate and 0% in the assay with rat seminal vesicle. For the same compound, the “Androgen Receptor Binding (%) Human RBA R1881 = 100” value on Human Androgen Receptor is 120%.
